Each block holds one molecule with its values, some of them ahead of it.
What was measured:
[1] = Stability in buffer solutions (LC/MS-MS method validation); assay type: physicochemical; conditions: spiked at 426 and 21.5 ng/mL
Procedure: The specificity of the analytical method was controlled with blank (NaCl, 9 g/L) solution (Merck, Darmstadt Germany). The limit of quantitation (LoQ) was 2.43 ng/mL. Linearity was determined between the LoQ and 1000 ng/mL, with accuracy below ±15%, except at the LoQ, which was below ± 20%. Accuracy and precision were determined at least at two quality control (QC) theoretical concentrations: low (around 20 ng/mL) and middle (around 300 ng/mL). All QCs remained within the acceptance criteria (accuracy < ±15%). Matrix effects and stability in buffer solutions and buffer supplemented with pig skin were evaluated at two concentrations (426 and 21.5 ng/mL) in triplicate by spiking buffer solutions containing known amounts of chemical. […] A matrix effect was observed; therefore, all calibrations for this chemical were carried out in the matrix.

[2] = design: method as in L'Oréal Laboratories; conditions: AH/A−; ref L'Oréal Laboratories; cited from earlier work
[3] = Penetration kinetics across pig ear skin; assay type: in vitro ADME
Procedure: Before use, hairs were shaved from the pig ear skin using an electric razor, and the skin thickness was adjusted between 700 and 1200 µm. This size range was achieved by cutting the dermis below hair follicle. The integrity of the skin was tested according to the Trans-Epidermal Water Loss (TEWL) method using a Delfin device.
After topical application of the test chemical (infinite dose, 1.13 mL/cm^2), the concentration of the chemical in the receptor fluid was measured by sampling 200 µL of receptor fluid and replacing it with fresh fluid on an hourly basis, up to 16 h.
The kinetic samples were directly injected into an LC/MS-MS system (Shimadzu Nexera LC system, Shimadzu, Kyoto, Japan) coupled with a mass spectrometer API 3500 (Sciex, Framingham, MA, USA). The analytical system was managed by Analyst v.1.6 software (Sciex, Framingham, MA, USA). The analytical column used was a Kinetex C18 from Phenomenex™ (Torrance, CA, USA) (50 × 2.0 mm, dp. 2.6 µm), and analysis was carried out with a gradient elution with mobile phases of 20 mM ammonium acetate (A) and acetonitrile (B). The column temperature was fixed at 50 °C, and the volume of the injection was 10 µL with a flow rate of 0.8 mL/min. The ionisation mode used was electrospray negative.
The calculation was carried out using GraphPad PrismT v.7 (GraphPad Software Inc., San Diego, CA, USA).

[4] = logP by shake-flask method, octanol/water; assay type: physicochemical; conditions: 25.0 °C
Procedure: Two parallel experiments were carried out. Four different phase ratios of octanol:water (1:50, 1:75, 1:100, 1:125) were applied. The equilibration time was 1 h (Lauda M2OS, shaking thermostat Königshofen, Germany), and the phases were separated by centrifugation. The concentration decrease in the sample in the aqueous phase was detected by UV spectroscopy (Jasco V-550 UV/VIS spectrophotometer, Easton, MD, USA) measuring the absorbance before and after the partition at λmax = 280 nm. The logP value was calculated from the equation:(1) logP=log[A0−A1/A1(Vaq/Voct)] where A0 and A1 represent the absorbance value at the absorption maximum of the compound in the aqueous phase before and after partition.

[5] = Skin-PAMPA permeability of PER in different solvents; assay type: in vitro ADME
Procedure: Skin PAMPA™ sandwiches and stirring bars (P/N: 110211) were supplied by Pion Inc™. UV plates (UV-star microplate, clear, flat bottom, half area) were from Greiner Bio-one™ (Kremsmünster, Austria). Membranes were hydrated overnight with standard hydration solution (Pion Inc™., product number 120706). […] The acceptor (lower) plate contained 180 μL Prisma buffer pH 7.4 and a magnetic stirrer in each well. The PAMPA™ sandwich was incubated at 32 °C in a Gut-Box™ (from Pion Inc™). Stirring bars were applied in every well to avoid the effect of the unstirred water layer. The acceptor solution was sampled after 7.5, 15, 30, 60, 120, 240 and 360 min incubation. After each individual incubation period, 150 µL from the acceptor compartment was transferred to UV plates. The acceptor phase was replaced with fresh buffer solution.
The flux (J) was obtained as the slope of the permeability profile and expressed in µg/cm^2 × h units. For the linear regression analysis, the linear range of incubation period from 0 to 30 min was selected and used for calculation of flux of the model compound. Permeability coefficient Pm […] was calculated from the equation:Pm= J/CD(2) where CD is the donor phase concentration.

[6] = Skin-PAMPA membrane integrity study with piroxicam as model permeant; assay type: in vitro ADME; conditions: piroxicam from aqueous solution; membranes pre-treated 7 h with each of 13 solvents
Procedure: Possible disruption by solvents of the integrity of the biomimetic artificial membrane was investigated. Wells were filled with each solvent and incubated over a longer (minimum 7 h) incubation time than the duration of the tests with the model solutions. The solvents were aspirated from the wells, and the residue from the surface of the membrane was removed gently with cotton paper. A standard skin permeability assay was then performed using piroxicam as the model permeant, for which precise previous data are available. The logPm values were compared with the reference value from untreated plates.

[7] = design: method as in PMID 25957747; conditions: aqueous solution, untreated Skin-PAMPA plates; cited from earlier work
[8] = PER in S4 Dimethylisosorbide, CD 60 mg/mL
[9] = PER in S5 Water/ethanol 80:20 (w/w), CD 8 mg/mL
[10] = PER in S6 Water/dimethylisosorbide 90:10 (w/w), CD 1 mg/mL
[11] = PER in S7 Propylene glycol, CD 350 mg/mL
[12] = PER in S8 Water:propylene glycol 80:20 (w/w), CD 51 mg/mL
[13] = PER in S10 Capric/caprylic triglycerides, CD 75 mg/mL
[14] = PER in S2 Ethanol, CD 500 mg/mL
[15] = PER in S4 Dimethylisosorbide, CD 70 mg/mL
[16] = PER in S5 Water/ethanol 80:20 (w/w), CD 10 mg/mL
[17] = PER in S7 Propylene glycol, CD 500 mg/mL
[18] = PER in S8 Water:propylene glycol 80:20 (w/w), CD 10 mg/mL
[19] = PER in S9 Water/propylenglycol/ethanol 10:30:60 (w/w/w), CD 500 mg/mL
[20] = PER in S10 Capric/caprylic triglycerides, CD 70 mg/mL
[21] = PER in S11 Octyl dodecanol, CD 1 mg/mL
[22] = PER in S12 Apricot kernel oil, CD 1 mg/mL
[23] = PER in S13 Corn oil, CD 1 mg/mL

stability in buffer solutions spiked with PER [1]: 98.3 ± 7.0%
J (flux) ([3]; PER in S1 Water, CD 1 mg/mL): 25 ± 9.6 µg/cm^2 × h
Permeated Amount (16 h) ([3]; PER in S1 Water, CD 1 mg/mL): 261 ± 100 µg/cm^2
logKp ([3]; PER in S1 Water, CD 1 mg/mL): −1.71 ± 0.32
Permeated Amount (16 h) ([3]; PER in S2 Ethanol, CD […]): 98 ± 67 µg/cm^2
J (flux) [3, 8]: 0.08 ± 0.024 µg/cm^2 × h
logKp [3, 8]: −5.88 ± 0.19
J (flux) [3, 9]: 61 ± 18 µg/cm^2 × h
Permeated Amount (16 h) [3, 9]: 515 ± 203 µg/cm^2
logKp [3, 9]: −1.97 ± 0.34
J (flux) [3, 10]: 7.5 ± 3 µg/cm^2 × h
Permeated Amount (16 h) [3, 10]: 100 ± 37 µg/cm^2
logKp [3, 10]: −2.16 ± 0.26
J (flux) [3, 11]: 20 ± 17.6 µg/cm^2 × h
Permeated Amount (16 h) [3, 11]: 147 ± 120 µg/cm^2
logKp [3, 11]: −4.24 ± 0.81
J (flux) [3, 12]: 98 ± 50 µg/cm^2 × h
Permeated Amount (16 h) [3, 12]: 516 ± 109 µg/cm^2
logKp [3, 12]: −1.72 ± 0.34
Permeated Amount (16 h) ([3]; PER in S9 Water/propylenglycol/ethanol 10:30:60 (w/w/w), CD […]): 320 ± 149 µg/cm^2
J (flux) [3, 13]: 8 ± 3.5 µg/cm^2 × h
Permeated Amount (16 h) [3, 13]: 54 ± 34 µg/cm^2
logKp [3, 13]: −3.97 ± 0.29
logP [4]: 2.98 ^1
J (flux) ([5]; PER in S1 Water, CD 1 mg/mL): 72.4 ± 7.8 µg/cm^2 × h
Lag Time ([5]; PER in S1 Water, CD 1 mg/mL): 1.4 min
Permeated Amount (6 h) ([5]; PER in S1 Water, CD 1 mg/mL): 169 ± 4 µg/cm^2
logPm ([5]; PER in S1 Water, CD 1 mg/mL): −1.12 ± 0.06
J (flux) [5, 14]: 12,033 ± 252 µg/cm^2 × h
Lag Time [5, 14]: 0.0 min
Permeated Amount (6 h) [5, 14]: 13,575 ± 1710 µg/cm^2
logPm [5, 14]: −1.62 ± 0.01
J (flux) ([5]; PER in S3 Glycerol, CD 5 mg/mL): 137 ± 22 µg/cm^2 × h
Lag Time ([5]; PER in S3 Glycerol, CD 5 mg/mL): 5.5 min
Permeated Amount (6 h) ([5]; PER in S3 Glycerol, CD 5 mg/mL): 869 ± 112 µg/cm^2
logPm ([5]; PER in S3 Glycerol, CD 5 mg/mL): −1.57 ± 0.07
J (flux) [5, 15]: 209 ± 53 µg/cm^2 × h
Lag Time [5, 15]: 3.6 min
Permeated Amount (6 h) [5, 15]: 1342 ± 298 µg/cm^2
logPm [5, 15]: −2.54 ± 0.13
J (flux) [5, 16]: 589 ± 25 µg/cm^2 × h
Lag Time [5, 16]: 0.9 min
Permeated Amount (6 h) [5, 16]: 1662 ± 169 µg/cm^2
logPm [5, 16]: −1.23 ± 0.03
J (flux) [5, 10]: 76.4 ± 15.2 µg/cm^2 × h
Lag Time [5, 10]: 0.0 min
Permeated Amount (6 h) [5, 10]: 175 ± 22 µg/cm^2
logPm [5, 10]: −1.13 ± 0.07
J (flux) [5, 17]: 2118 ± 502 µg/cm^2 × h
Lag Time [5, 17]: 3.8 min
Permeated Amount (6 h) [5, 17]: 11,142 ± 729 µg/cm^2
logPm [5, 17]: −2.38 ± 0.11
J (flux) [5, 18]: 570 ± 5 µg/cm^2 × h
Lag Time [5, 18]: 1.1 min
Permeated Amount (6 h) [5, 18]: 1772 ± 98 µg/cm^2
logPm [5, 18]: −1.24 ± 0.01
J (flux) [5, 19]: 10,846 ± 326 µg/cm^2 × h
Lag Time [5, 19]: 1.4 min
Permeated Amount (6 h) [5, 19]: 14,926 ± 2431 µg/cm^2
logPm [5, 19]: −1.66 ± 0.01
J (flux) [5, 20]: 377 ± 36 µg/cm^2 × h
Lag Time [5, 20]: 3.0 min
Permeated Amount (6 h) [5, 20]: 749 ± 92 µg/cm^2
J (flux) [5, 21]: 7.18 ± 1.6 µg/cm^2 × h
Lag Time [5, 21]: 3.9 min
Permeated Amount (6 h) [5, 21]: 19 ± 0.4 µg/cm^2
J (flux) [5, 22]: 2.45 ± 0.57 µg/cm^2 × h
Lag Time [5, 22]: 3.3 min
Permeated Amount (6 h) [5, 22]: 13 ± 1.9 µg/cm^2
logPm [5, 22]: −2.63 ± 0.07
J (flux) [5, 23]: 3.26 ± 0.41 µg/cm^2 × h
Lag Time [5, 23]: 1.4 min
Permeated Amount (6 h) [5, 23]: 13 ± 1.3 µg/cm^2
logPm [5, 23]: −2.48 ± 0.06
calculated lag times ([5]; span over all 13 solvents): 0 to 6 min
Molecule: 4-phenylethyl-resorcinol [PER]
pKa [2]: 9.77–10.77 (AH/A^−) ^2

logPm of piroxicam, mean across solvent-treated membranes [6]: −4.25 ± 0.30
Molecule: CN1C(C(=O)Nc2ccccn2)=C(O)c2ccccc2S1(=O)=O [piroxicam]
reference logPm of piroxicam [7]: −4.98 ± 0.01
